Molecules are shown by their SMILES.

For 2 molecules, Activity results are on record in ChEMBL document CHEMBL2074438, “Influence of omeprazole on multidrug resistance protein 3 expression in human liver” (J Pharmacol Exp Ther, 2003).

Assay [1] deals with Multidrug resistance associated protein (Homo sapiens) (UniProt Q96QA9). The assay can be described thus: TP_TRANSPORTER: RT-PCR in HepG2 cells. Type of assay: functional, cell-based.
For assay [2] the target is unchanged. The assay can be described thus: TP_TRANSPORTER: Western blot, HepG2 cells. It is filed as functional, cell-based. In general terms: In western blotting, separated proteins are transferred to a membrane and probed.

Sequence of Multidrug resistance associated protein (Homo sapiens) (Q96QA9 as listed by the source): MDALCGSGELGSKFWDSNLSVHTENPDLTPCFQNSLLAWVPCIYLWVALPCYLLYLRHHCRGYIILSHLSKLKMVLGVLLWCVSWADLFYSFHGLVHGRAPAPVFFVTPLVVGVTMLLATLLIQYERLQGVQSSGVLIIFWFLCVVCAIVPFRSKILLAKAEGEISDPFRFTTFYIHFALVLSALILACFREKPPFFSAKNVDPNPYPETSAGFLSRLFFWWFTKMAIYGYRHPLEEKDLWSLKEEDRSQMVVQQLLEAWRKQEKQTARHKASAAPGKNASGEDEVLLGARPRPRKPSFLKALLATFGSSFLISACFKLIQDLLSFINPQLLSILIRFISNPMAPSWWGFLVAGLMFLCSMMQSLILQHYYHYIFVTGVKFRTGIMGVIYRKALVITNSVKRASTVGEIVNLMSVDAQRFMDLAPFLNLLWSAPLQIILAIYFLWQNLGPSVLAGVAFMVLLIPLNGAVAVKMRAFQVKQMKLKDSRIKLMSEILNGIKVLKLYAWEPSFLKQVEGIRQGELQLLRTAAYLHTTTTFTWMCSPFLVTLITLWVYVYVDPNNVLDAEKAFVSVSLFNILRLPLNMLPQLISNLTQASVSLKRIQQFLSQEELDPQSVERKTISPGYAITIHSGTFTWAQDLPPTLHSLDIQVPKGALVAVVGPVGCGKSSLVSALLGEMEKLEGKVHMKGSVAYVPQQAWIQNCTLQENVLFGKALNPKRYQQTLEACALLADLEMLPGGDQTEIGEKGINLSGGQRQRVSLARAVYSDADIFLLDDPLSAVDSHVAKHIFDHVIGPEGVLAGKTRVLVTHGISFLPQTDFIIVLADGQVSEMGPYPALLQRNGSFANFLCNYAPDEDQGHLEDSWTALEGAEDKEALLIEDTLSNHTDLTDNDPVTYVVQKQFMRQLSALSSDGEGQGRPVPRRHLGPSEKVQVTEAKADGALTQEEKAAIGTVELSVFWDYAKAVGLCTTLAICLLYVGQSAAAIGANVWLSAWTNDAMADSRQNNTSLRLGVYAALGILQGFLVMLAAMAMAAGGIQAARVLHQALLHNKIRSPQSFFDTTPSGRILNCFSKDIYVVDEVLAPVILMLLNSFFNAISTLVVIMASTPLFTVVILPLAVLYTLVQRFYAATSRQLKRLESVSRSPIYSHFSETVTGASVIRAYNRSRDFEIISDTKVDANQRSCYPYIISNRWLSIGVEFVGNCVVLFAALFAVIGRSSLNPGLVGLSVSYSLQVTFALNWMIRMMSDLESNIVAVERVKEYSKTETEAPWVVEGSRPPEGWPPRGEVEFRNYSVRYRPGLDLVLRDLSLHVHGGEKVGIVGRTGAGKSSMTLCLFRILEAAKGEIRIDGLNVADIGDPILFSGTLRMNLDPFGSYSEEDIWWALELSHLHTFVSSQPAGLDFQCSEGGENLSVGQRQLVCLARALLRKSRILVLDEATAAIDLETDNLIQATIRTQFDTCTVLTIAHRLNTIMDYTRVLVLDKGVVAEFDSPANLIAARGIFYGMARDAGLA

In the case of `O=c1cc(-c2ccccc2)oc2ccc3ccccc3c12`, the Activity entry in assay [1] and in assay [2] was “inducer []” throughout.

Turning to `COc1ccc2[nH]c([S+]([O-])Cc3ncc(C)c(OC)c3C)nc2c1` (centres undefined), the Activity entry in assay [1] and in assay [2] was “inducer []” in each case.
